Read-outs that look alike come from different tables or passages of the source.
Columns and labels:
5-HT1A receptor = assay: In vitro receptor binding, 5-HT1A
Procedure: In vitro IC50 test values for binding to the 5-HT1A receptor were determined for representative compounds of Formula I by the method of S. J. Peroutka, Brain Research 344, 167 (1985); with only minor modifications. Test IC50 values lower than 100 nM are considered to reflect activity at the 5-HT1A receptor.

D2 receptor = molecular target: T1, D2 receptor (Bos taurus, UniProt P20288); assay: In vitro receptor binding, D2
T1 construct: from tissue
T1 sequence (P20288 whole entry): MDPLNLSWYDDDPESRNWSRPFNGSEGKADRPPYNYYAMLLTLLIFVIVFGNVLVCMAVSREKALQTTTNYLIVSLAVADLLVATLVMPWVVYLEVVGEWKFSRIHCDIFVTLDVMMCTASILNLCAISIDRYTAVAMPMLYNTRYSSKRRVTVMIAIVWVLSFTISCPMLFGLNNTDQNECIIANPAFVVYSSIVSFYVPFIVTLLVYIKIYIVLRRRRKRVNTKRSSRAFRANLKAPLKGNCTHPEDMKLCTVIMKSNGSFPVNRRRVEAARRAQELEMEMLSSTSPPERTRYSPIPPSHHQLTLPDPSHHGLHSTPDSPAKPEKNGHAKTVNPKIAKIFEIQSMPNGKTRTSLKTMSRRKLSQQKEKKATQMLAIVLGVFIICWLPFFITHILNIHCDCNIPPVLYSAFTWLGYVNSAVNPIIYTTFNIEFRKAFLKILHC
Procedure: In vitro IC50 test values for binding to the D2 receptor were determined for representative compounds of Formula I by the method of Burt, Creese, and Snyder, Molecular Pharmacology 12, 800 (1976); Creese, Burt, and Snyder, Science 196, 326 (1977); and Creese, Burt and Snyder, Science.

[1] = test system: rat social interaction task (anxiety); assay: Rat social interaction task (in vivo model of anxiety); settings: given subcutaneously
[2] = in vitro, read-out: D2 receptor binding IC50

Row | Structure (SMILES) | IC50 (5-HT1A receptor) | IC50 (D2 receptor; [2]) | IC50 (D2 receptor) | Rat social interaction task, active doses [1]
1 | O[C@]1(c2ccc3c(c2)OCO3)CC[C@H](N2CCN(Cc3ccccc3)CC2)CC1 [Example 17, Z-1-(1,3-Benzodioxol-5-yl)-4-[4-(phenylmethyl)-1-piperazinyl]cyclohexanol] | 20 nM | 1710 nM | – | –
2 | COc1ccc([C@]2(O)CC[C@@H](N3CCN(Cc4ccccc4)CC3)CC2)cc1 [Example 18, Z-1-(4-Methoxyphenyl):4-[4-(phenylmethyl)-1-piperazinyl]cyclohexane] | 46.5 nM | 1830 nM | – | –
3 | CO[C@]1(c2ccc3c(c2)OCO3)CC[C@H](N2CCN(Cc3ccccc3)CC2)CC1 [Example 19, Z-1-[4-(1,3,-Benzodioxol-5-yl)-4-methoxycyclohexyl]-4-(phenylmethyl)piperazine] | 14 nM | 1350 nM | – | –
4 | O[C@]1(c2ccc3c(c2)OCCO3)CC[C@H](N2CCN(Cc3ccccc3)CC2)CC1 [Example 20-Z, Z-1-(1,4-Benzodioxan-6-yl)-4-[4-(phenylmethyl)-1-piperazinyl]cyclohexanol] | 9.9 nM | 15200 nM | – | –
5 | COc1cccc(CN2CCN([C@H]3CC[C@](O)(c4ccc5c(c4)OCO5)CC3)CC2)c1 [Example 21, Z-1-(1,3,-Benzodioxol-5-yl)-4-[4-[(3-methoxyphenyl)methyl]-1-piperazinyl]-cyclohexanol] | 2.15 nM | 1040 nM | – | –
6 | O[C@]1(c2ccc3c(c2)OCO3)CC[C@H](N2CCN(Cc3ccccc3F)CC2)CC1 [Example 23, Z-1-(1,3-Benzodioxol-5-yl)-4-[4,[(2-fluorophenyl)methyl]-1-piperazinyl]cyclohexanol] | 10.1 nM | – | 1540 nM | –
7 | Cc1ccccc1CN1CCN([C@H]2CC[C@](O)(c3ccc4c(c3)OCO4)CC2)CC1 [Example 24, Z-1-(1,3-Benzodioxol-5-yl)-4-[4-[(2-methylphenyl)methyl]-1-piperazinyl]cyclohexanol] | 4.2 nM | 2550 nM | – | –
8 | O=[N+]([O-])c1ccccc1CN1CCN([C@H]2CC[C@](O)(c3ccc4c(c3)OCO4)CC2)CC1 [Example 25, Z-1-(1,3-Benzodioxol-5-yl)-4-[4-[(2,-nitrophenyl)methyl]-1-piperazinyl]cyclohexanol] | 12.8 nM | 7080 nM | – | –
9 | O[C@]1(c2ccc(F)cc2)CC[C@H](N2CCN(Cc3cc(F)ccc3F)CC2)CC1 [Example 36, Z-1-(4-Fluorophenyl)-4-[4-[(2,5-difluorophenyl)methyl]-1-piperazinyl]cyclohexanol] | 34.7 nM | – | – | 0.01-10 mpk
10 | COc1cccc(CC2CCN([C@H]3CC[C@](OC)(c4ccc5c(c4)OCO5)CC3)CC2)c1 [Example 44, Z-1-[4-(1,3-Benzodioxol-5-yl)-4-methoxy-1-cyclohexyl]-4-[(3-methoxyphenyl)methyl]-piperidine] | 8.2 nM | 49200 nM | – | –

— patent US5478828A, “Piperazinyl-and piperidinyl-cyclohexanols” (Bristol-Myers Squibb Company, priority 1995, dated 1995)
